Results reported in US10428066B2, “Imidazo[4,5-C]pyridine and pyrrolo[2,3-C]pyridine derivatives as SSAO inhibitors” (PROXIMAGEN, LLC, priority 2013, dated 2019).

Target: purified recombinantly expressed human SSAO (Homo sapiens (Human), UniProt Q16853)
Assay: SSAO enzyme inhibition assay (HRP-coupled hydrogen peroxide detection or 14C-benzaldehyde detection, benzylamine substrate)
Format: biochemical
Conditions: human recombinant SSAO, RT
Method: All primary assays were performed at RT. with purified recombinantly expressed human SSAO. Enzyme was prepared essentially as described in Öhman et al. (Protein Expression and Purification 46 (2006) 321-331). In addition, secondary- and selectivity assays were performed using SSAO prepared from various tissues or purified rat recombinant SSAO. The enzyme activity was assayed with benzylamine as substrate by measuring either benzaldehyde production, using ^14C-labeled substrate, or by utilizing the production of hydrogen peroxide in a horseradish peroxidase (HRP) coupled reaction. Briefly, test compounds were dissolved in dimethyl sulfoxide (DMSO) to a concentration of 10 mM. Dose-response measurements were assayed by either creating 1:10 serial dilutions in DMSO to produce a 7 point curve or by making 1:3 serial dilutions in DMSO to produce 11 point curves.
In a horseradish peroxidase (HRP) coupled reaction, hydrogen peroxide oxidation of 10-acetyl-3,7-dihydroxyphenoxazine produced resorufin, which is a highly fluorescent compound (Zhout and Panchuk-Voloshina. Analytical Biochemistry 253 (1997) 169-174; Amplex® Red Hydrogen Peroxide/peroxidase Assay kit, Invitrogen A22188). Enzyme and compounds in 50 mM sodium phosphate, pH 7.4 were set to pre-incubate in flat-bottomed microtiter plates for approximately 15 min before initiating the reaction by addition of a mixture of HRP, benzylamine and Amplex reagent. Benzylamine concentration was fixed at a concentration corresponding to the Michaelis constant, determined using standard procedures. Fluorescence intensity was then measured at several time points during 1-2 h, exciting at 544 nm and reading the emission at 590 nm. For the human SSAO assay final concentrations of the reagents in the assay wells were: SSAO enzyme 1 ug/ml, benzylamine 100 uM, Amplex reagent 20 uM, HRP 0.1 U/mL and varying concentrations of test compound. The inhibition was measured as % decrease of the signal compared to a control without inhibitor (only diluted DMSO). The background signal from a sample containing no SSAO enzyme was subtracted from all data points. Data was fitted to a four parameter logistic model and IC50 values were calculated using the GraphPad Prism 4 or XLfit 4 programs.
SSAO activity was assayed using 14C-labeled benzylamine and analysed by measuring radioactive benzaldehyde. In a white 96-well optiplate (Packard), 20 uL of diluted test compound was pre-incubated at room temperature with 20 uL SSAO enzyme for approximately 15 min with continuous agitation. All dilutions were made with PBS. The reaction was initiated by adding 20 uL of the benzylamine substrate solution containing [7-14C] Benzylamine hydrochloride (CFA589, GE Healthcare). The plate was incubated for 1 h as above after which the reaction was stopped by acidification (10 uL 1M aq HCl). Then 90 uL Micro Scint-E solution (Perkin-Elmer) was added to each well and the plate was continuously mixed for 15 min. Phase separation occurred instantly and activity was read in a Topcount scintillation counter (Perkin-Elmer). In the final reaction well, the human recombinant SSAO concentration was 10 ug/ml. In order to optimize sensitivity, the substrate concentration was decreased as compared to the HRP coupled assay in order to get a higher fraction of radioactive product. In the human SSAO assay, benzylamine concentration was 40 uM (0.2 uCi/mL). Data was analysed as above.

Chain of purified recombinantly expressed human SSAO (Q16853 29-763): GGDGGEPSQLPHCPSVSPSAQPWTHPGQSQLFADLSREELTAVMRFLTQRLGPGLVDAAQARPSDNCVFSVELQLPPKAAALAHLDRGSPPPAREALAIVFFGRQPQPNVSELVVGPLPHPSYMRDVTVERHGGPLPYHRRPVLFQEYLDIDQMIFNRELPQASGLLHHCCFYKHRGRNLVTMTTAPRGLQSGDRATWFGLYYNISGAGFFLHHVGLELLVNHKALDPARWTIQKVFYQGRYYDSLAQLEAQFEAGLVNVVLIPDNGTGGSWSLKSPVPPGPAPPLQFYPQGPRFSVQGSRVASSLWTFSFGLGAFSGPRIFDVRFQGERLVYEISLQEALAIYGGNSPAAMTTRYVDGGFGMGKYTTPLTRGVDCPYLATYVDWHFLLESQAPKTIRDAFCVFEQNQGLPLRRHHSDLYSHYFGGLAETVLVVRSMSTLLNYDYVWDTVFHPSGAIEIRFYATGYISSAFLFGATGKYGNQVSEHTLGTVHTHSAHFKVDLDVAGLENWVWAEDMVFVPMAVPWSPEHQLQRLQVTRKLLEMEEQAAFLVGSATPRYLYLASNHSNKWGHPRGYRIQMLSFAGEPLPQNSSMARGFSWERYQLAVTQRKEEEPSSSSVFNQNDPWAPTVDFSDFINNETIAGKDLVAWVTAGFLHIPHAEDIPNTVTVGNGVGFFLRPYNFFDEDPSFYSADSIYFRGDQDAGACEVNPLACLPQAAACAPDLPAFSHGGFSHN

Structure (SMILES) | IC50
Cc1ccc(-n2c(-c3cnc(N4CCOCC4)nc3)nc3ccncc32)cn1 [Example 58, 4-{5-[3-(6-Methylpyridin-3-yl)-3H-imidazo[4,5-c]pyridin-2-yl]pyrimidin-2-yl}morpholine] | 200 to 1200 nM
Brc1ccc(-n2c(-c3cnc(N4CCOCC4)nc3)nc3ccncc32)cc1 [Example 59, 4-{5-[3-(4-Bromophenyl)-3H-imidazo[4,5-c]pyridin-2-yl]pyrimidin-2-yl}morpholine] | 50 to 200 nM
Fc1ccccc1-n1c(-c2cnc(N3CCOCC3)nc2)nc2ccncc21 [Example 60, 4-{5-[3-(2-Fluorophenyl)-3H-imidazo[4,5-c]pyridin-2-yl]pyrimidin-2-yl}morpholine] | 50 to 200 nM
Cc1cc(F)ccc1-n1c(-c2ccc(N3CCOCC3)nc2)nc2ccncc21 [Example 62, 4-{5-[3-(4-Fluoro-2-methylphenyl)-3H-imidazo[4,5-c]pyridin-2-yl]pyridin-2-yl}morpholine] | 50 to 200 nM
Cc1ccc(-n2c(-c3ccc(N4CCOCC4)nc3)nc3ccncc32)cc1 [Example 63, 4-{5-[3-(4-Methylphenyl)-3H-imidazo[4,5-c]pyridin-2-yl]pyridin-2-yl}morpholine] | 200 to 1200 nM
Cc1ccc(-n2c(-c3ccc(N4CCOCC4)nc3)nc3ccncc32)cn1 [Example 64, 4-{5-[3-(6-Methylpyridin-3-yl)-3H-imidazo[4,5-c]pyridin-2-yl]pyridin-2-yl}morpholine] | 200 to 1200 nM
FC(F)(F)c1ccc(-n2c(-c3ccc(N4CCOCC4)nc3)nc3ccncc32)cc1 [Example 66, 4-(5-{3-[4-(Trifluoromethyl)phenyl]-3H-imidazo[4,5-c]pyridin-2-yl}pyridin-2-yl)morpholine] | 50 to 200 nM
CN(C)c1ccc(-c2nc3ccncc3n2-c2ccc(F)cc2)cn1 [Example 71, 5-[3-(4-Fluorophenyl)-3H-imidazo[4,5-c]pyridin-2-yl]-N,N-dimethylpyridin-2-amine] | 200 to 1200 nM
CN(C)c1ncc(-c2nc3ccncc3n2-c2ccc(Cl)cc2)cn1 [Example 72, 5-[3-(4-Chlorophenyl)-3H-imidazo[4,5-c]pyridin-2-yl]-N,N-dimethylpyrimidin-2-amine] | 200 to 1200 nM
Fc1ccc(-n2c(-c3ccnc(N4CCOCC4)c3)nc3ccncc32)cc1 [Example 73, 4-{4-[3-(4-Fluorophenyl)-3H-imidazo[4,5-c]pyridin-2-yl]pyridin-2-yl}morpholine] | 50 to 200 nM
Fc1cc(-n2c(-c3cnc(N4CCOCC4)nc3)nc3ccncc32)ccc1Cl [Example 74, 4-{5-[3-(4-Chloro-3-fluorophenyl)-3H-imidazo[4,5-c]pyridin-2-yl]pyrimidin-2-yl}morpholine] | 200 to 1200 nM
Fc1ccc(-n2c(-c3cnc(N4CCOCC4)nc3)nc3ccncc32)nc1 [Example 76, 4-{5-[3-(5-Fluoropyridin-2-yl)-3H-imidazo[4,5-c]pyridin-2-yl]pyrimidin-2-yl}morpholine] | 50 to 200 nM
Fc1cc(Cl)ccc1-n1c(-c2cnc(N3CCOCC3)nc2)nc2ccncc21 [Example 77, 4-{5-[3-(4-Chloro-2-fluorophenyl)-3H-imidazo[4,5-c]pyridin-2-yl]pyrimidin-2-yl}morpholine] | 200 to 1200 nM
Fc1cc(Cl)ccc1-n1c(-c2ccc(N3CCOCC3)nc2)nc2ccncc21 [Example 80, 4-{5-[3-(4-Chloro-2-fluorophenyl)-3H-imidazo[4,5-c]pyridin-2-yl]pyridin-2-yl}morpholine] | 50 to 200 nM
NC(=O)NC1CCN(c2ccc(-c3nc4ccncc4n3-c3ccc(Cl)cc3)cn2)CC1 [Example 91, (1-{5-[3-(4-Chlorophenyl)-3H-imidazo[4,5-c]pyridin-2-yl]pyridin-2-yl}piperidin-4-yl)urea; bis(trifluoroacetic acid)] | 200 to 1200 nM
NC(=O)N1CCN(c2ncc(-c3nc4ccncc4n3-c3ccc(Cl)cc3)o2)CC1 [Example 93, 4-{5-[3-(4-Chlorophenyl)-3H-imidazo[4,5-c]pyridin-2-yl]-1,3-oxazol-2-yl}piperazine-1-carboxamide] | 50 to 200 nM

Structure (SMILES) | IC50
NC(=O)N1CCCN(c2ccc(-c3nc4ccncc4n3-c3ccc(F)cc3)cn2)CC1 [Example 94, 4-{5-[3-(4-Fluorophenyl)-3H-imidazo[4,5-c]pyridin-2-yl]pyridin-2-yl}-1,4-diazepane-1-carboxamide] | 200 to 1200 nM
c1ccc(-n2c(-c3cnc(N4CCOCC4)nc3)nc3ccncc32)cc1 [Example 95, 4-(5-{3-Phenyl-3H-imidazo[4,5-c]pyridin-2-yl}pyrimidin-2-yl) morpholine] | 50 to 200 nM
c1cc2nc(-c3cnc(N4CCOCC4)nc3)n(-c3ccc(C4CC4)cc3)c2cn1 [Example 96, 4-{5-[3-(4-Cyclopropylphenyl)-3H-imidazo[4,5-c]pyridin-2-yl]pyrimidin-2-yl}morpholine] | 50 to 200 nM
Cc1ccc(-n2c(-c3cnc(N4CCOCC4)cc3C)nc3ccncc32)cc1 [Example 97, 4-{4-Methyl-5-[3-(4-methylphenyl)-3H-imidazo[4,5-c]pyridin-2-yl]pyridin-2-yl}morpholine] | 200 to 1200 nM
Fc1ccc(-n2c(-c3cnc(N4CCOCC4)c(F)c3)nc3ccncc32)cc1 [Example 98, 4-{3-Fluoro-5-[3-(4-fluorophenyl)-3H-imidazo[4,5-c]pyridin-2-yl]pyridin-2-yl}morpholine] | 50 to 200 nM
Cc1cc(NC2CCOCC2)ncc1-c1nc2ccncc2n1-c1ccc(F)cc1 [Example 100, 5-[3-(4-Fluorophenyl)-3H-imidazo[4,5-c]pyridin-2-yl]-4-methyl-N-(oxan-4-yl)pyridin-2-amine] | 200 to 1200 nM
Cc1cc(NCC2CC2)ncc1-c1nc2ccncc2n1-c1ccc(F)cc1 [Example 101, N-(Cyclopropylmethyl)-5-[3-(4-fluorophenyl)-3H-imidazo[4,5-c]pyridin-2-yl]-4-methylpyridin-2-amine] | 50 to 200 nM
Cc1ccc(-n2c(-c3ccc(N4C[C@@H](C)O[C@@H](C)C4)nc3)nc3ccncc32)cn1 [Example 103, (2R,6S)-2,6-Dimethyl-4-{5-[3-(6-methylpyridin-3-yl)-3H-imidazo[4,5-c]pyridin-2-yl]pyridin-2-yl}morpholine; tris(trifluoroacetic acid)] | 50 to 200 nM
Nc1ccc(-c2nc3ccncc3n2-c2ccc(Cl)cc2F)cn1 [Example 105, 5-[3-(4-Chloro-2-fluorophenyl)-3H-imidazo[4,5-c]pyridin-2-yl]pyridin-2-amine] | 200 to 1200 nM
CN1CCN(c2ccc(-c3nc4ccncc4n3-c3ccc(F)cc3)cn2)CC1=O [Example 106, 4-{5-[3-(4-Fluorophenyl)-3H-imidazo[4,5-c]pyridin-2-yl]pyridin-2-yl}-1-methylpiperazin-2-one] | 50 to 200 nM
Cc1nc(N2CCOCC2)ccc1-c1nc2ccncc2n1-c1ccc(F)cc1 [Example 108, 4-{5-[3-(4-Fluorophenyl)-3H-imidazo[4,5-c]pyridin-2-yl]-6-methylpyridin-2-yl}morpholine] | 200 to 1200 nM
CN(C)c1cc(-c2nc3ccncc3n2-c2ccc(F)cc2)ccn1 [Example 109, 4-[3-(4-Fluorophenyl)-3H-imidazo[4,5-c]pyridin-2-yl]-N,N-dimethylpyridin-2-amine] | 200 to 1200 nM
Nc1ccc(-c2nc3ccncc3n2-c2ccc(Cl)cc2)cn1 [Example 110, 5-[3-(4-Chlorophenyl)-3H-imidazo[4,5-c]pyridin-2-yl]pyridin-2-amine] | 200 to 1200 nM
Cn1ccc(-c2nc3ccncc3n2-c2ccc(F)cc2)cc1=O [Example 114, 4-[3-(4-Fluorophenyl)-3H-imidazo[4,5-c]pyridin-2-yl]-1-methyl-1,2-dihydropyridin-2-one] | 200 to 1200 nM
O=c1cc(-c2nc3ccncc3n2-c2ccc(Cl)cc2F)ccn1C1CC1 [Example 116, 4-[3-(4-Chloro-2-fluorophenyl)-3H-imidazo[4,5-c]pyridin-2-yl]-1-cyclopropyl-1,2-dihydropyridin-2-one] | 50 to 200 nM
COCCN(C)c1ncc(-c2nc3ccncc3n2-c2ccc(C)cc2)cn1 [Example 117, N-(2-Methoxyethyl)-N-methyl-5-[3-(4-methylphenyl)-3H-imidazo[4,5-c]pyridin-2-yl]pyrimidin-2-amine] | 200 to 1200 nM
